This is an account of results in publication PMC9097457 (The Journal of Biological Chemistry, 2022).

The subject of series [1] is mitochondrial polymerase γ. To be noted: cited from earlier work.
Series [2] addresses T1, deoxyguanosine kinase (dGK) (Rattus norvegicus, UniProt A0A0G2K478).
T1 sequence (A0A0G2K478 with tags, fused parts or gaps): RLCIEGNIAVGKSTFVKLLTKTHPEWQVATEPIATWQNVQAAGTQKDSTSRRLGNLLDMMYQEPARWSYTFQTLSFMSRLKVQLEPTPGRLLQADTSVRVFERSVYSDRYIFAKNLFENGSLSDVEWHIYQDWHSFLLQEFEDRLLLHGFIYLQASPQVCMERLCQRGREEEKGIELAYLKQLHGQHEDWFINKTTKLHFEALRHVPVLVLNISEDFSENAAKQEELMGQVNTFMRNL
Put plainly: Tissue-specific phosphorylation of [3H]-dG, [3H]-dA and [3H]-ETV in isolated mitochondria. The class given is biochemical. To be noted: 2 h; for dG converted to phosphorylated products: 1 μM. The protocol:
As noted in the Experimental procedures, these were added together to determine total phosphorylation.
(§1) To measure and compare phosphorylation and kinetics, a stable substrate concentration was necessary and EHNA (5 μM) ([50]) and I-H (2.0 μM) ([49]) were added to all mitochondrial incubations. […] The mitochondria were incubated in vitro for up to 2 h at 37 °C in a shaker bath. At the end of the incubation, reactions were terminated by addition of 10% TCA to an equal volume of incubation mixture (175 μl) and spun in a microcentrifuge to remove precipitates. The supernatant was neutralized with AG 11 A8 resin and filtered through a […] nylon syringe filter. The neutralized and filtered supernatants were analyzed by ultra high pressure liquid chromatography (UPLC). Radioactivity was determined from aliquots of each sample and processed through a Beckman Coulter multipurpose liquid scintillation counter (model 6500).
Extent of phosphorylation was measured and analyzed by UPLC (Agilent 1290) with a reverse-phase C18 column (Zorbax Eclipse Plus C18; 3.0 × 150 mm, 1.8 micron) coupled with an inline diode array to detect UV signal at 254 nm and to an inline liquid scintillation counter (β-Ram) to quantitate radioactivity.
(§2) The radioactivity in each of these peaks was quantitated and totaled to provide the total amount of radioactivity in the phosphorylated products for each labeled precursor. This total was divided by the specific radioactivity of the precursor and expressed as pmol/mg protein/hr. The Kms were calculated from Lineweaver–Burk plots 1/Vo=Km/Vmax[S]+1/Vmax

In series [3] the target is T1, deoxyguanosine kinase (dGK). Put plainly: Inhibition of [3H]-dA phosphorylation by competing deoxynucleosides in liver mitochondria. Format: biochemical. Conditions: IC50 values at 1 μM substrate. As to the method:
as §1, §2

Series [4] shares this target. Put plainly: Kinetic analysis of [3H]-dG and [3H]-ETV phosphorylation and cross inhibition in heart mitochondria. The class given is biochemical. To be noted: absence of ETV, data of Figure 4. The protocol: as §1, §2
Series [5] has the same target. As to the kind of experiment: Kinetic analysis of [3H]-dA phosphorylation in the presence of dG or ETV in liver mitochondria. Format: biochemical. To be noted: 0.12 μM inhibitor, 4 μM dA. As to the method: as §1
In another series the test system is heart mitochondria. As to the kind of experiment: Conversion of [3H]-dGMP to [3H]-dGTP in isolated heart mitochondria. Format: biochemical, rat. To be noted: 1 μM precursor. The protocol:
Thus, we were interested in determining if the dGTP and dATP phosphorylation pathway in isolated mitochondria functioned similarly.
[^3H]-dGMP (1 μM) or [^3H]-dAMP (1 μM) was incubated in heart mitochondria as described for Figure 1 for the times shown, and their conversion to [^3H]-dGTP and [^3H]-dATP, respectively, determined in the presence and absence of Ap5A ([…]), a competitive inhibitor of adenylate kinase. Data are shown as a box plot of two independent experiments. The thickness of the lines indicates the spread of the duplicates. Ap5A, P1,P5-di(adenosine-5) pentaphosphate pentasodium salt.
as §1

Series [6] relates to isolated rat heart. Put plainly: Phosphorylation of [3H]-ETV, [3H]-dG and [3H]-dA in the isolated perfused rat heart (Langendorff). Conditions: 60-min perfusion. As to the method:
The phosphorylation of [^3H]-dG, [^3H]-dA, and [^3H]-ETV in isolated mitochondria depends on the activity of the mitochondrial dGK. To determine the degree of phosphorylation in a whole tissue, which would include the activity of the cytosolic dCK, we utilized an isolated rat heart Langendorff retrograde perfusion model. The breakdown and phosphorylation of [^3H]-ETV, [^3H]-dG, and [^3H]-dA (0.5 μM each) was measured in the perfusates and in the hearts after 60 min of perfusion (Fig. 9, A and B). […] However, the heart was still able to take up and maintain a small amount of dG to generate 0.18 ± 0.05 pmol/mg wet heart of phosphorylated dG during the 60-min perfusion. […] Despite the loss of [^3H]-dA from the perfusate, the heart took up and maintained enough dA to produce 0.48 ± 0.08 pmol/mg wet heart of phosphorylated [^3H]-dA products at 60 min (Fig. 9B). […] Note that [^3H]-dG and [^3H]-dG catabolites equilibrate rapidly between the perfusion buffer and the heart, while the phosphorylated forms of [^3H]-dG are retained solely in the heart tissue.
Figure 9 [^3H]-ETV and [^3H]-dG phosphorylation in a perfused rat heart. Rat hearts were removed and perfused using the Langendorff method for 1 h as described in Experimental procedures with 0.5 μM [^3H]-ETV, 0.5 μM [^3H]-dG), or 0.5 μM [^3H]-dA. […] A, the amount of exogenous [^3H]-parent compound in the perfusate as a function of time, plotted as a box plot of three independent experiments. See text for details. B, the amount of phosphorylated [^3H]-ETV, [^3H]-dG, or [^3H]-dA in the heart tissue after 60 min of perfusion with additions as noted in (A). See text for details.
Rat hearts were perfused by Langendorff retrograde perfusion apparatus with [^3H]-dG, [^3H]-dA, or [^3H]-ETV for 60 min under the conditions previously described ([25], [26], [51]). Perfused hearts were snap frozen into wafers by clamping the heart in liquid nitrogen, and the frozen tissue wafers were stored in −80 °C until processed as previously described for ([24]) UPLC analysis.

Series [7] has as its system isolated rat heart. As to the kind of experiment: Breakdown of the [3H]-parent compound in the perfusate of the isolated perfused rat heart. Format: in vitro ADME. To be noted: 0.5 μM [3H]-dG alone. The protocol:
To determine the degree of phosphorylation in a whole tissue, which would include the activity of the cytosolic dCK, we utilized an isolated rat heart Langendorff retrograde perfusion model.
See text for details. […] See text for details.
Perfused hearts were snap frozen into wafers by clamping the heart in liquid nitrogen, and the frozen tissue wafers were stored in −80 °C until processed as previously described for ([24]) UPLC analysis.

In series [8] the target is T2, purine nucleoside phosphorylase (PNP) (Rattus norvegicus, UniProt P85973).
T2 sequence (P85973 1-289): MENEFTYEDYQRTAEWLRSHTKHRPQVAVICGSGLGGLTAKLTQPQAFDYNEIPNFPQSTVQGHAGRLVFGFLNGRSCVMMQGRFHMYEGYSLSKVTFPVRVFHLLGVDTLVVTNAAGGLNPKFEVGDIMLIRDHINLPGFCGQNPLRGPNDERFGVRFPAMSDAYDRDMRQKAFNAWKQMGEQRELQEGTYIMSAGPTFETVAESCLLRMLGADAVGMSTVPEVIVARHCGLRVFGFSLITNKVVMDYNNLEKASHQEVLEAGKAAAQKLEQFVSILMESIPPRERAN
Procedure: To measure and compare phosphorylation and kinetics, a stable substrate concentration was necessary and EHNA (5 μM) ([50]) and I-H (2.0 μM) ([49]) were added to all mitochondrial incubations. […] The mitochondria were incubated in vitro for up to 2 h at 37 °C in a shaker bath. At the end of the incubation, reactions were terminated by addition of 10% TCA to an equal volume of incubation mixture (175 μl) and spun in a microcentrifuge to remove precipitates. The supernatant was neutralized with AG 11 A8 resin and filtered through a 0.2-μM nylon syringe filter. The neutralized and filtered supernatants were analyzed by ultra high pressure liquid chromatography (UPLC). Radioactivity was determined from aliquots of each sample and processed through a Beckman Coulter multipurpose liquid scintillation counter (model 6500).

`C=C1C(COP(=O)(O)OP(=O)(O)OP(=O)(O)O)C(O)CC1n1cnc2c(=O)[nH]c(N)nc21` (stereo not drawn) [ETV-triphosphate]: the “recognition by mitochondrial polymerase γ” value in series [1] is given as “not recognized”.
For `Nc1nc2c(ncn2[C@H]2C[C@H](O)[C@@H](CO)O2)c(=O)[nH]1` [dG, deoxyguanosine], in [2] (1 μM each, brain, heart, kidney, liver mitochondria), the “dG phosphorylated more readily than dA” value came to 10 fold. For the same molecule, in [2] (heart mitochondria), the “dG converted to phosphorylated products” value is 30 pmol/mg mitochondrial protein. Also, in series [2] (liver mitochondria), the “dG converted to phosphorylated products” value was 60 pmol/mg mitochondrial protein. In addition, the “inhibition of dA phosphorylation more potent than ETV inhibition of dG phosphorylation” value in series [3] was 500 fold. Besides, the “rate of [3H]-dG phosphorylation to [3H]-dGTP, control” value in [4] is listed as 45.9 ± 1.8 pmol/mg protein/hr. Further, the “inhibition of dA phosphorylation” value in series [5] is “nearly completely inhibited”. In addition, the “conversion to [3H]-dGTP at the 30-min time point” value with heart mitochondria is 22.4 ± 0.8 pmol/mg protein. Moreover, in the series with isolated rat heart [6] (0.5 μM [3H]-dG + I-H 2 μM (legend: + I-H and EHNA)), the “phosphorylated [3H]-dG in heart” value is reported as 0.57 ± 0.08 pmol/mg wet heart. Moreover, the “phosphorylated product in heart” value in the series on isolated rat heart [6] (0.5 μM labeled compound alone) amounted to 0.18 ± 0.05 pmol/mg wet heart. Further, in the series on isolated rat heart [7], the “parent compound in the perfusate by 60 min” value is on record as “nearly completely converted to catabolites”; the “parent compound in the perfusate within 3 min” value is given as 25 ± 8.8%; the “parent compound in the perfusate, initial level” value was 86.8 ± 0.7%. The “stability in heart mitochondria” value in series [8] (heart mitochondria, initial studies) was “stable”. For the same molecule, in series [8] (kidney mitochondria, 60 min, no inhibitor), the “conversion of [3H]-dG to breakdown products” value is recorded as 22%.
